pIC50: −log10 of the molar value.
How the values were obtained:
[1] = target: Casein kinase 1 delta (CSKN1D) (Homo sapiens, UniProt P48730); test: Casein kinase assay, CK1 delta; format: biochemical; conditions: recombinant CSKN1D 5 nM, ATP 10 μM
Experimental: (§1) The recombinant protein Casein kinase 1 delta (CSKN1D) was added to the substrate solution in a concentration of 5 nM and gently mixed. Dilution series in of compounds of the present invention in DMSO were added to the reaction mixture, followed after 20 min by addition of a mixture of ATP and ^33P-ATP (specific activity 0.01 μCi/μl final) to a final concentration of 10 μM. Reactions were carried out at 25° C. for 120 min, followed by spotting the reactions onto P81 ion exchange filter paper. Unbound phosphate was removed by washing of the filters in 0.75% phosphoric acid. […] IC50 values and curve fits were obtained using the program Prism® (Graph Pad Software).

[2] = target: Casein kinase 1 epsilon (CSKN1E) (Homo sapiens, UniProt P49674); test: Casein kinase assay, CK1 epsilon; format: biochemical; conditions: recombinant CSKN1E 30 nM, ATP 10 μM
Casein kinase 1 epsilon (CSKN1E), sequence (P49674 whole entry): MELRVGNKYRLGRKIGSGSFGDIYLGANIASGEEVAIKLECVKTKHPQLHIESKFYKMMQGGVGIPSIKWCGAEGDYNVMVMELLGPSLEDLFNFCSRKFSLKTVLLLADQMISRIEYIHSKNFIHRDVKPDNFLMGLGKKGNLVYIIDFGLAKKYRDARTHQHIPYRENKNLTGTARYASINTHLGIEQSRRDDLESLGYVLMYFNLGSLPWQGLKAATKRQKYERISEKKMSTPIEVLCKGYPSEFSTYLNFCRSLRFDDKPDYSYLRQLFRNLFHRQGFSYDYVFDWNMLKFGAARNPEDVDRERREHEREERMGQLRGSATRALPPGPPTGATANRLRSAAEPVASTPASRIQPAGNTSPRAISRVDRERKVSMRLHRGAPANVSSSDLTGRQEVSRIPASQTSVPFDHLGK
Experimental: as §1
The above assay was also used to determine the inhibitory capacity of the compounds of the present invention on Casein Kinase 1 epsilon, wherein instead of CSKN1D, recombinant protein Casein kinase 1 epsilon (CSKN1E) was added to the substrate solution in a concentration of 30 nM and gently mixed.

Casein kinase 1 delta (CSKN1D), sequence (P48730 whole entry): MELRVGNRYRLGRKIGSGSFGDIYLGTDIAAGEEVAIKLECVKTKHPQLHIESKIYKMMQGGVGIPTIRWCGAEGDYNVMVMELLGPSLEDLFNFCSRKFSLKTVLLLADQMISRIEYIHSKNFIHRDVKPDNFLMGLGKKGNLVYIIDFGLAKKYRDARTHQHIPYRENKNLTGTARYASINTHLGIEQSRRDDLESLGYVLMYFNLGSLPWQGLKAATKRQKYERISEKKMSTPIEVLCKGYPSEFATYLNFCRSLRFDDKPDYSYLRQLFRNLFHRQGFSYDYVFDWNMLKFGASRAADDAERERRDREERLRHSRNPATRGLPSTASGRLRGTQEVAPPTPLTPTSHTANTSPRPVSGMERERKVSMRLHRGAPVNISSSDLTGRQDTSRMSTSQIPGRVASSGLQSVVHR

SMILES	pIC50 [1]	pIC50 [2]
O=C(Nc1nc(C(=O)Nc2nc3cc4c(cc3[nH]2)OC(F)(F)O4)ns1)c1ccc(Cl)cc1 [Compound 91]	> 6.70	> 6.70
NS(=O)(=O)c1cc(C(=O)Nc2nc3cc4c(cc3[nH]2)OC(F)(F)O4)cs1 [Compound 83, N-(2,2-difluoro-5H-[1,3]dioxolo[4′,5′:4,5]benzo[1,2-d]imidazol-6-yl)-5-sulfamoylthiophene-3-carboxamide]	> 6.70	> 6.70
Cc1occc1C(=O)Nc1nc2cc3c(cc2[nH]1)OC(F)(F)O3 [Compound 33, N-(2,2-difluoro-5H-[1,3]dioxolo[4′,5′:4,5]benzo[1,2-d]imidazol-6-yl)-2-methylfuran-3-carboxamide]	> 6.70	6.00 to 6.70
O=C(Nc1nc2cc3c(cc2[nH]1)OC(F)(F)O3)c1coc(-c2ccc3c(c2)CCO3)n1 [Compound 40, N-(2,2-difluoro-5H-[1,3]dioxolo[4′,5′:4,5]benzo[1,2-d]imidazol-6-yl)-2-(2,3-dihydrobenzofuan-5-yl)oxazole-4-carboxamide]	< 6.00	< 6.00
O=C(Nc1nc(C(=O)Nc2nc3cc4c(cc3[nH]2)OC(F)(F)O4)cs1)c1ccncc1 [Compound 21, N-(2,2-difluoro-5H-[1,3]dioxolo[4′,5′:4,5]benzo[1,2-d]imidazol-6-yl)-2-(isonicotinamido)thiazole-4-carboxamide]	> 6.70	> 6.70
O=C(Nc1nc2cc3c(cc2[nH]1)OC(F)(F)O3)c1c[nH]cn1 [Compound 103, N-(2,2-difluoro-5H-[1,3]dioxolo[4′,5′:4,5]benzo[1,2-d]imidazol-6-yl)-1H-imidazole-4-carboxamide]	6.00 to 6.70	–
Cc1cc(C(=O)Nc2nc3cc4c(cc3[nH]2)OC(F)(F)O4)no1 [Compound 145, N-(2,2-difluoro-5H-[1,3]dioxolo[4′,5′:4,5]benzo[1,2-d]imidazol-6-yl)-5-methylisoxazole-3-carboxamide]	< 6.00	–
O=C(Nc1nc2cc3c(cc2[nH]1)OC(F)(F)O3)c1ccc(-c2ccccc2)cc1 [Compound 21B]	6.00 to 6.70	–
O=C(Nc1nc2cc3c(cc2[nH]1)OC(F)(F)O3)c1ccno1 [Compound 72, N-(2,2-difluoro-5H-[1,3]dioxolo[4′,5′:4,5]benzo[1,2-d]imidazol-6-yl)isoxazole-5-carboxamide]	6.00 to 6.70	–
O=C(Nc1nc2cc3c(cc2[nH]1)OC(F)(F)O3)c1ccc([N+](=O)[O-])s1 [Compound 63, N-(2,2-difluoro-5H-[1,3]dioxolo[4′,5′:4,5]benzo[1,2-d]imidazol-6-yl)-5-nitrothiophene-2-carboxamide]	6.00 to 6.70	–
O=C(Nc1nc2cc3c(cc2[nH]1)OC(F)(F)O3)c1cnco1 [Compound 71, N-(2,2-difluoro-5H-[1,3]dioxolo[4′,5′:4,5]benzo[1,2-d]imidazol-6-yl)oxazole-5-carboxamide]	6.00 to 6.70	–
O=C(Nc1nc2cc3c(cc2[nH]1)OC(F)(F)O3)c1ccc(-n2cnnn2)cc1 [Compound 22B, N-(2,2-difluoro-5H-[1,3]dioxolo[4′,5′:4,5]benzo[1,2-d]imidazol-6-yl)-4-(1H-tetrazol-1-yl)benzamide]	> 6.70	–
O=C(Nc1nc2cc3c(cc2[nH]1)OC(F)(F)O3)c1ccc2ccccc2n1 [Compound 59, N-(2,2-difluoro-5H-[1,3]dioxolo[4′,5′:4,5]benzo[1,2-d]imidazol-6-yl)quinoline-2-carboxamide]	< 6.00	–
NS(=O)(=O)c1c[nH]c(C(=O)Nc2nc3cc4c(cc3[nH]2)OC(F)(F)O4)c1 [Compound 101, N-(2,2-difluoro-5H-[1,3]dioxolo[4′,5′:4,5]benzo[1,2-d]imidazol-6-yl)-4-sulfamoyl-1H-pyrrole-2-carboxamide]	> 6.70	–
O=C(Nc1nc2cc3c(cc2[nH]1)OC(F)(F)O3)c1ccnc(N2CCSCC2)c1 [Compound 14B, N-(2,2-difluoro-5H-[1,3]dioxolo[4′,5′:4,5]benzo[1,2-d]imidazol-6-yl)-2-thiomorpholinoisonicotinamide]	> 6.70	–
O=C(Nc1nc2cc3c(cc2[nH]1)OC(F)(F)O3)c1ccc(NCc2ccccc2)cc1 [Compound 76, 4-(benzylamino)-N-(2,2-difluoro-5H-[1,3]dioxolo[4′,5′:4,5]benzo[1,2-d]imidazol-6-yl)benzamide]	> 6.70	–
O=C(Nc1nc2cc3c(cc2[nH]1)OC(F)(F)O3)c1cncc(-c2cccs2)c1 [Compound 23B, N-(2,2-difluoro-5H-[1,3]dioxolo[4′,5′:4,5]benzo[1,2-d]imidazol-6-yl)-5-(thiophen-2-yl)nicotinamide]	> 6.70	–

Second part, the compound after the results:

pIC50 [1]	pIC50 [2]	SMILES
6.00 to 6.70	< 6.00	O=C(Nc1nc2cc3c(cc2[nH]1)OC(F)(F)O3)c1nnn(-c2cccc(F)c2)c1C(F)(F)F [Compound 36, N-(2,2-difluoro-5H-[1,3]dioxolo[4′,5′:4,5]benzo[1,2-d]imidazol-6-yl)-1-(3-fluorophenyl)-5-(trifluoromethyl)-1H-1,2,3-triazole-4-carboxamide]
> 6.70	6.00 to 6.70	O=C(Nc1nc2cc3c(cc2[nH]1)OC(F)(F)O3)c1ccsc1 [Compound 20, N-(2,2-difluoro-5H-[1,3]dioxolo[4′,5′:4,5]benzo[1,2-d]imidazol-6-yl)thiophene-3-carboxamide]
> 6.70	–	CN(C)c1ccc(C(=O)Nc2nc3cc4c(cc3[nH]2)OC(F)(F)O4)cc1 [Compound 75, N-(2,2-difluoro-5H-[1,3]dioxolo[4′,5′:4,5]benzo[1,2-d]imidazol-6-yl)-4-(dimethylamino)benzamide]
> 6.70	–	O=C(Nc1nc2cc3c(cc2[nH]1)OC(F)(F)O3)c1cccnc1 [Compound 78, N-(2,2-difluoro-5H-[1,3]dioxolo[4′,5′:4,5]benzo[1,2-d]imidazol-6-yl)nicotinamide]
> 6.70	–	Cn1cc(C(=O)Nc2nc3cc4c(cc3[nH]2)OC(F)(F)O4)cn1 [Compound 13B, N-(2,2-difluoro-5H-[1,3]dioxolo[4′,5′:4,5]benzo[1,2-d]imidazol-6-yl)-1-methyl-1H-pyrazole-4-carboxamide]
> 6.70	–	CC(C)(C)c1nc(-c2cccc(C(=O)Nc3nc4cc5c(cc4[nH]3)OC(F)(F)O5)c2)no1 [Compound 132, 3-(5-(tert-butyl)-1,2,4-oxadiazol-3-yl)-N-(2,2-difluoro-5H-[1,3]dioxolo[4′,5′:4,5]benzo[1,2-d]imidazol-6-yl)benzamide]
< 6.00	–	O=C(Nc1nc2cc3c(cc2[nH]1)OC(F)(F)O3)c1ccc(Cl)cc1 [Compound 106, 4-chloro-N-(2,2-difluoro-5H-[1,3]dioxolo[4′,5′:4,5]benzo[1,2-d]imidazol-6-yl)benzamide]
6.00 to 6.70	–	O=C(Nc1nc2cc3c(cc2[nH]1)OC(F)(F)O3)c1ccc(Cl)c(Cl)c1 [Compound 109, 3,4-dichloro-N-(2,2-difluoro-5H-[1,3]dioxolo[4′,5′:4,5]benzo[1,2-d]imidazol-6-yl)benzamide]
6.00 to 6.70	–	O=C(Nc1nc2cc3c(cc2[nH]1)OC(F)(F)O3)c1cccc(OC(F)(F)F)c1 [Compound 120, N-(2,2-difluoro-5H-[1,3]dioxolo[4′,5′:4,5]benzo[1,2-d]imidazol-6-yl)-3-(trifluoromethoxy)benzamide]
> 6.70	–	CC(=O)c1cccc(C(=O)Nc2nc3cc4c(cc3[nH]2)OC(F)(F)O4)c1 [Compound 114, 3-acetyl-N-(2,2-difluoro-5H-[1,3]dioxolo[4′,5′:4,5]benzo[1,2-d]imidazol-6-yl)benzamide]
6.00 to 6.70	–	Nc1ccc(C(=O)Nc2nc3cc4c(cc3[nH]2)OC(F)(F)O4)cn1 [Compound 110, 6-amino-N-(2,2-difluoro-5H-[1,3]dioxolo[4′,5′:4,5]benzo[1,2-d]imidazol-6-yl)nicotinamide]
> 6.70	–	COc1cncc(C(=O)Nc2nc3cc4c(cc3[nH]2)OC(F)(F)O4)c1 [Compound 123, N-(2,2-difluoro-5H-[1,3]dioxolo[4′,5′:4,5]benzo[1,2-d]imidazol-6-yl)-5-methoxynicotinamide]
< 6.00	–	Cc1ccc(C(=O)Nc2nc3cc4c(cc3[nH]2)OC(F)(F)O4)cc1 [Compound 107, N-(2,2-difluoro-5H-[1,3]dioxolo[4′,5′:4,5]benzo[1,2-d]imidazol-6-yl)-4-methylbenzamide]
> 6.70	–	Nc1ccc(C(=O)Nc2nc3cc4c(cc3[nH]2)OC(F)(F)O4)cc1 [Compound 60, 4-amino-N-(2,2-difluoro-5H-[1,3]dioxolo[4′,5′:4,5]benzo[1,2-d]imidazol-6-yl)benzamide]
> 6.70	–	N#Cc1cccc(C(=O)Nc2nc3cc4c(cc3[nH]2)OC(F)(F)O4)c1 [Compound 116, 3-cyano-N-(2,2-difluoro-5H-[1,3]dioxolo[4′,5′:4,5]benzo[1,2-d]imidazol-6-yl)benzamide]
> 6.70	–	O=C(Nc1nc2cc3c(cc2[nH]1)OC(F)(F)O3)c1cccc(OC(F)F)c1 [Compound 121, N-(2,2-difluoro-5H-[1,3]dioxolo[4′,5′:4,5]benzo[1,2-d]imidazol-6-yl)-3-(difluoromethoxy)benzamide]
6.00 to 6.70	–	CC(C)(C)c1ccc(C(=O)Nc2nc3cc4c(cc3[nH]2)OC(F)(F)O4)cc1 [Compound 115, 4-(tert-butyl)-N-(2,2-difluoro-5H-[1,3]dioxolo[4′,5′:4,5]benzo[1,2-d]imidazol-6-yl)benzamide]
< 6.00	–	COc1ccnc(C(=O)Nc2nc3cc4c(cc3[nH]2)OC(F)(F)O4)c1 [Compound 26B]

Source: patent publication US20170240556A1, “BIFLUORODIOXALANE-AMINO-BENZIMIDAZOLE KINASE INHIBITORS FOR THE TREATMENT OF CANCER, AUTOIMMUNEINFLAMMATION AND CNS DISORDERS” (4SC DISCOVERY GMBH, priority 2012, published 2017)
